Like-named read-outs stand apart in the source and are kept apart here.
Assays:
Assay type in all cases: cell-based
[1] = system: MYB mRNA; assay: Splicing RT-qPCR assay (THP), Table 2A
[2] = system: MYB mRNA; assay: Gene panel canonical junction qPCR assay, decrease in CJ mRNA, Table 3
How it was run: (§1)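 A673 cells were plated, left to adhere for 24 h, then dosed; K562 cells were plated in 96- or 384-well format and dosed directly. Both were incubated 24 h at 37 °C with an 11-point 3-fold series (top 10 uM final). Canonical junction mRNA was then read by cDNA synthesis and qPCR.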

[3] = system: HTT mRNA; assay: as above
How it was run: as §1

[4] = system: SH-SY5Y (human neuroblastoma) cells; assay: Cell viability, Cell Titer Glo 2.0 assay; details: read-out: Viability SHSY5Y.3 GI50
How it was run: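 SH-SY5Y neuroblastoma cells are exposed to test compounds for 72 hours at 37 °C and 5% CO2, with final DMSO held at 0.1%. Cell viability is then measured with the CellTiter-Glo 2.0 assay.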

[5] = system: HTT mRNA; assay: Splicing RT-qPCR assay (THP), Table 2A
[6] = Table 2A (THP), AJ mRNA increase, read-out: MYB AJ (increase in alternative junction mRNA, AC50)
[7] = Table 2A (THP), CJ mRNA decrease, read-out: MYB CJ (decrease in canonical junction mRNA, IC50)
[8] = decrease in canonical junction (CJ) mRNA, gene panel qPCR, Table 3
[9] = Table 2A (THP), AJ mRNA increase, read-out: HTT AJ (increase in alternative junction mRNA, AC50)
[10] = Table 2A (THP), CJ mRNA decrease, read-out: HTT CJ (decrease in canonical junction mRNA, IC50)
[11] = Table 2A, THP, MYB alternative junction (AJ) mRNA, read-out: MYB AJ (AC50, increase in alternative junction mRNA)
[12] = Table 2A, THP, MYB canonical junction (CJ) mRNA, read-out: MYB CJ (IC50, decrease in canonical junction mRNA)
[13] = decrease in CJ mRNA levels, canonical junction qPCR, gene panel
[14] = Table 2A, THP, HTT alternative junction (AJ) mRNA, read-out: HTT AJ (AC50, increase in alternative junction mRNA)
[15] = Table 2A, THP, HTT canonical junction (CJ) mRNA, read-out: HTT CJ (IC50, decrease in canonical junction mRNA)

Row | Compound | AC50 [1, 6] | IC50 [1, 7] | IC50 [2, 8] | IC50 [3, 8] | GI50 [4] | AC50 [5, 9] | IC50 [5, 10] | AC50 [1, 11] | IC50 [1, 12] | IC50 [2, 13] | IC50 [3, 13] | AC50 [5, 14] | IC50 [5, 15]
1 | COc1cc2nn(C)cc2cc1NC(=O)c1ccc(N2C[C@H](C)N[C@@H](C)C2)c2cn(C)nc12 [Compound 553] | < 100 nM | 100 to 1000 nM | 100 to 1000 nM | 1000 to 10000 nM | 1000 to 10000 nM | 1000 to 10000 nM | 1000 to 10000 nM |  |  |  |  |  | 
2 | COc1c(NC(=O)c2ccc(N3CCC(NC4CC4)CC3)c3cn(C)nc23)cc2cn(C)nc2c1CNS(C)(=O)=O [Compound 819] |  |  |  |  | 1000 to 10000 nM |  |  | 1000 to 10000 nM | 1000 to 10000 nM | 1000 to 10000 nM | 1000 to 10000 nM | 1000 to 10000 nM | 1000 to 10000 nM
3 | Cn1cc2cc(NC(=O)c3c(F)cc(N4CCC(NC5CC5)CC4)c4cn(C)nc34)c(OC3CCOC3)cc2n1 (stereo not drawn) [Compound 467, 4-[4-(cyclopropyl-amino)-1-piperidyl]-6-fluoro-2-methyl-N-(2-methyl-6-tetrahydrofuran-3-yloxy-indazol-5-yl)indazole-7-carboxamide] | < 100 nM | < 100 nM | < 100 nM | 100 to 1000 nM | 100 to 1000 nM | 100 to 1000 nM | 100 to 1000 nM |  |  |  |  |  | 
4 | COc1nc2c(N3CCC(NC4CC4)CC3)ccc(C(=O)Nc3cc(F)c4nc(C)cn4c3)c2o1 [Compound 666, 4-[4-(cyclopropylamino)-1-piperidyl]-N-(8-fluoro-2-methyl-imidazo[1,2-a]-pyridin-6-yl)-2-methoxy-1,3-benzoxazole-7-carboxamide] |  |  |  |  | 1000 to 10000 nM |  |  | 100 to 1000 nM | 100 to 1000 nM | 100 to 1000 nM | 1000 to 10000 nM | 1000 to 10000 nM | 1000 to 10000 nM
5 | CNc1nc2c(C(=O)Nc3cc(F)c4nn(C)cc4c3)ccc(N3C[C@H](C)N[C@@H](C)C3)c2s1 [Compound 699, 7-[(3S,5S)-3,5-dimethylpiperazin-1-yl]-N-(7-fluoro-2-methyl-indazol-5-yl)-2-(methylamino)-1,3-benzothiazole-4-carboxamide] |  |  |  |  | < 100 nM |  |  | < 100 nM | < 100 nM | < 100 nM | 100 to 1000 nM | 100 to 1000 nM | 100 to 1000 nM
6 | CCNC1CCN(c2ccc(C(=O)Nc3cn4cc(C)nc(C)c4n3)n3nc(C)cc23)CC1 [Compound 615, N-(6,8-dimethylimidazo[1,2-a]-pyrazin-2-y1)-4-[4-(ethylamino)-1-piperidyl]-2-methyl-pyrazolo[1,5-a]-pyridine-7-carboxamide] |  |  |  |  | 1000 to 10000 nM |  |  | 1000 to 10000 nM | 100 to 1000 nM | 100 to 1000 nM | 1000 to 10000 nM | 1000 to 10000 nM | 1000 to 10000 nM
7 | Cc1cn2cc(NC(=O)c3ccc(N4CCC(NC5CC5)CC4)c4cn(C)nc34)nc2c(CCNS(C)(=O)=O)n1 [Compound 778] |  |  |  |  | > 10000 nM |  |  | > 10000 nM | > 10000 nM | > 10000 nM | > 10000 nM | > 10000 nM | > 10000 nM
8 | COc1cc2nn(C)cc2cc1NC(=O)c1ccc(N2CCC3NCC3C2)c2cn(C)nc12 (stereo not drawn) [Compound 542] | 100 to 1000 nM | 1000 to 10000 nM | 1000 to 10000 nM | > 10000 nM | > 10000 nM | > 10000 nM | > 10000 nM |  |  |  |  |  | 
9 | COc1nc2c(C(=O)Nc3cc(F)c4nn(C)cc4c3)ccc(N3C[C@H](C)NC4(CC4)C3)c2s1 [Compound 741] |  |  |  |  | < 100 nM |  |  | < 100 nM | < 100 nM | < 100 nM | > 10000 nM | 1000 to 10000 nM | > 10000 nM
10 | COc1nc2c(C(=O)Nc3ccc4nn(C)cc4c3OC)ccc(N3C[C@H](C)N[C@@H](C)C3)c2s1 [Compound 729, 7-[(3S,5S)-3,5-dimethylpiperazin-1-yl]-2-methoxy-N-(4-methoxy-2-methyl-indazol-5-yl)-1,3-benzothiazole-4-carboxamide] |  |  |  |  | 1000 to 10000 nM |  |  | > 10000 nM | > 10000 nM | > 10000 nM | 1000 to 10000 nM | > 10000 nM | 1000 to 10000 nM
11 | Cc1cn2cc(NC(=O)c3ccc(N4CCCCC4)c4cn(C)nc34)nc2c(CNS(C)(=O)=O)n1 [Compound 845] |  |  |  |  | 1000 to 10000 nM |  |  | > 10000 nM | > 10000 nM | > 10000 nM | > 10000 nM | > 10000 nM | > 10000 nM
12 | Cn1cc2cc(NC(=O)c3ccc(N4CCC(NC5CC5)CC4)c4cn(C)nc34)cc(CN)c2n1 [Compound 813, N-[7-(aminomethyl)-2-methyl-indazol-5-yl]-4-[4-(cyclopropylamino)-1-piperidyl]-2-methyl-indazole-7-carboxamide] |  |  |  |  | > 10000 nM |  |  | 1000 to 10000 nM | 1000 to 10000 nM | 1000 to 10000 nM | > 10000 nM | > 10000 nM | > 10000 nM
13 | COc1cc2nn(C)cc2cc1NC(=O)c1cnc(N2CCC(NC3CC3)CC2)c2cn(C)nc12 [Compound 434, 4-[4-(cyclopropylamino)-1-piperidyl]-N-(6-methoxy-2-methyl-indazol-5-yl)-2-methyl-pyrazolo[4,3-c]pyridine-7-carboxamide] | < 100 nM | < 100 nM | < 100 nM | 100 to 1000 nM | 1000 to 10000 nM | 100 to 1000 nM | 100 to 1000 nM |  |  |  |  |  | 
14 | CNC1CCN(c2ccc(C(=O)Nc3cn4cc(C)nc(CNS(C)(=O)=O)c4n3)c3nn(C)cc23)CC1 [Compound 825] |  |  |  |  | > 10000 nM |  |  | 1000 to 10000 nM | 1000 to 10000 nM | 1000 to 10000 nM | > 10000 nM | > 10000 nM | > 10000 nM
15 | Cn1cc2cc(NC(=O)c3c(F)cc(N4CCC(NC5CC5)CC4)c4cn(C)nc34)c(Cl)cc2n1 [Compound 439, N-(6-chloro-2-methyl-indazol-5-yl)-4-[4-(cyclopropylamino)-1-piperidyl]-6-fluoro-2-methyl-indazole-7-carboxamide] | > 10000 nM | > 10000 nM | > 10000 nM | > 10000 nM | > 10000 nM | > 10000 nM | > 10000 nM |  |  |  |  |  | 
16 | Cc1cn2nc(NC(=O)c3c(F)cc(N4CCC(NC5CC5)CC4)c4nc(C)sc34)cc(C)c2n1 [Compound 665, 4-[4-(cyclopropyl-amino)-1-piperidyl]-N-(2,8-dimethylimidazo[1,2-b]-pyridazin-6-yl)-6-fluoro-2-methyl-1,3-benzothiazole-7-carboxamide] |  |  |  |  | 100 to 1000 nM |  |  | 100 to 1000 nM | 100 to 1000 nM | 100 to 1000 nM | 100 to 1000 nM | 100 to 1000 nM | 100 to 1000 nM
17 | C[C@H]1CN(c2ccc(C(=O)Nc3cc(F)c4nn(C)cc4c3)c3nc(CN)sc23)C[C@H](C)N1 [Compound 707, 2-(aminomethyl)-7-[(3S,5S)-3,5-dimethylpiperazin-1-yl]-N-(7-fluoro-2-methyl-indazol-5-yl)-1,3-benzothiazole-4-carboxamide] |  |  |  |  | 100 to 1000 nM |  |  | < 100 nM | < 100 nM | < 100 nM | 1000 to 10000 nM | 100 to 1000 nM | 1000 to 10000 nM
18 | COc1nc2c(C(=O)Nc3ccc(=O)n(C)c3)ccc(N3C[C@H](C)N[C@@H](C)C3)c2s1 [Compound 730, 7-((3S,5S)-3,5-dimethylpiperazin-1-yl)-2-methoxy-N-(1-methyl-6-oxo-1,6-dihydropyridin-3-yl)benzo[d]thiazole-4-carboxamide 2,2,2-trifluoroacetate] |  |  |  |  | 1000 to 10000 nM |  |  | 100 to 1000 nM | 100 to 1000 nM | 100 to 1000 nM | > 10000 nM | > 10000 nM | > 10000 nM
19 | CNC1CN(c2ccc(C(=O)Nc3cc(F)c4nn(C)cc4c3)c3nc(OC)sc23)C1 [Compound 749, N-(7-fluoro-2-methyl-indazol-5-yl)-2-methoxy-7-[3-(methylamino)azetidin-1-yl]-1,3-benzothiazole-4-carboxamide] |  |  |  |  | 100 to 1000 nM |  |  | 100 to 1000 nM | < 100 nM | < 100 nM | 100 to 1000 nM | 100 to 1000 nM | 100 to 1000 nM
20 | Cn1cc2c(N3CCC(NC4CC4)CC3)cc(F)c(C(=O)Nc3ccc4c(c3)B(O)OC4)c2n1 [Compound 482, 4-[4-(cyclopropyl-amino)-1-piperidy1]-6-fluoro-N-(1-hydroxy-3H-2,1-benzoxaborol-6-y1)-2-methyl-indazole-7-carboxamide 2,2,2-trifluoroacetate] | > 10000 nM | > 10000 nM | > 10000 nM | > 10000 nM | 1000 to 10000 nM | > 10000 nM | > 10000 nM |  |  |  |  |  | 
21 | CCNC1CCN(c2ccc(C(=O)Nc3cn4cc(C)nc(CC)c4n3)c3nn(C)cc23)CC1 [Compound 358, 4-[4-(ethylamino)-1-piperidy1]-N-(8-ethyl-6-methyl-imidazo[1,2-a]-pyrazin-2-yl)-2-methyl-indazole-7-carboxamide] | 100 to 1000 nM | 1000 to 10000 nM | 1000 to 10000 nM | 1000 to 10000 nM | 1000 to 10000 nM | 1000 to 10000 nM | 1000 to 10000 nM |  |  |  |  |  | 

From patent US20260285853A1, “COMPOUNDS AND METHODS FOR MODULATING SPLICING” (REMIX THERAPEUTICS INC., priority 2023, published 2026)
